Series [1] concerns the target COX-1/COX-2 (Homo sapiens) (UniProt P35354+P23219). Briefly: Selectivity index, ratio of IC50 for human COX-1 to IC50 for human COX-2. The class given is protein assay.
Series [2] is described as follows: Inhibition of PI3Kdelta in Rat1 cells reduction in phosphorylation of AKT at Ser473 residue incubated for 2 hrs by alpha screen assay. The class given is cell-based. The settings on record: Rattus norvegicus, Rat1, 2 h. For orientation: In Alpha technology, singlet oxygen from a donor bead excites a nearby acceptor bead.
Series [3] in a line: Acute toxicity in po dosed Swiss albino mouse measured after 24 hrs. Type of series: organism-based. The settings on record: in vivo.
For a further series, the system named is Candida albicans. The series is described as follows: Fungicidal activity against Candida albicans. Type of series: functional.
In another series the test system is Aspergillus niger. Briefly: Fungicidal activity against Aspergillus niger. The class given is functional.
The subject of the next series is Aspergillus clavatus. Briefly: Fungicidal activity against Aspergillus clavatus. Type of series: functional.
Series [4] relates to Staphylococcus aureus. Briefly: Bactericidal activity against Staphylococcus aureus. The class given is functional.
A further series has as its system Bacillus subtilis. The series is described as follows: Antimicrobial activity against Bacillus subtilis by CLSI method. The class given is functional.
Series [5] relates to Escherichia coli. The series is described as follows: Antibacterial activity against Escherichia coli by CLSI method. The class given is functional.
Series [6] relates to Pseudomonas aeruginosa. The series is described as follows: Antimicrobial activity against Pseudomonas aeruginosa by CLSI method. The class given is functional.
In series [7] the test system is Staphylococcus aureus. Briefly: Antimicrobial activity against Staphylococcus aureus by CLSI method. Type of series: functional.
The target in series [8] is T1, Thermolysin (Bacillus thermoproteolyticus, UniProt P00800).
T1 sequence (P00800 whole entry): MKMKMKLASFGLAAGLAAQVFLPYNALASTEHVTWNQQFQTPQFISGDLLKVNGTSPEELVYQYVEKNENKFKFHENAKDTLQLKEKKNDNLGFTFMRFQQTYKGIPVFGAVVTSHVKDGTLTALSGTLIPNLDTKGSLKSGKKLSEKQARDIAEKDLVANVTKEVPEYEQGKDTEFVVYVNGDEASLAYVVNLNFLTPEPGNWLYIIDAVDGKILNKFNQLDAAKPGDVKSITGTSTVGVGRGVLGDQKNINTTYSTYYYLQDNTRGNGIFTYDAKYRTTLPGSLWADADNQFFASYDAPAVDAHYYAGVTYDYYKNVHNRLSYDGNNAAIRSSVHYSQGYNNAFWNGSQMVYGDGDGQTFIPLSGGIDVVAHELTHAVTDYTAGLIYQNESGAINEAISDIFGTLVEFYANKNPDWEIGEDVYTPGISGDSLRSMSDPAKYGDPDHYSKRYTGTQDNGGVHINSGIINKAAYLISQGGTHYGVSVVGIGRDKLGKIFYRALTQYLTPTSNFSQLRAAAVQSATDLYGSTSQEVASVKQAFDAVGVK
The series is described as follows: Binding affinity to Bacillus thermoproteolyticus Thermolysin assessed as inhibition constant by Cheng-Prusoff equation analysis.

The target in series [9] is T1, Thermolysin. The series is described as follows: Inhibition of Bacillus thermoproteolyticus Thermolysin.
The target in series [10] is Epidermal growth factor receptor (Homo sapiens, UniProt P00533). The series is described as follows: Inhibition of wild type human EGFR measured by ELISA analysis. A general note: ELISA stands for enzyme-linked immunosorbent assay.
Chain of Epidermal growth factor receptor (P00533 whole entry): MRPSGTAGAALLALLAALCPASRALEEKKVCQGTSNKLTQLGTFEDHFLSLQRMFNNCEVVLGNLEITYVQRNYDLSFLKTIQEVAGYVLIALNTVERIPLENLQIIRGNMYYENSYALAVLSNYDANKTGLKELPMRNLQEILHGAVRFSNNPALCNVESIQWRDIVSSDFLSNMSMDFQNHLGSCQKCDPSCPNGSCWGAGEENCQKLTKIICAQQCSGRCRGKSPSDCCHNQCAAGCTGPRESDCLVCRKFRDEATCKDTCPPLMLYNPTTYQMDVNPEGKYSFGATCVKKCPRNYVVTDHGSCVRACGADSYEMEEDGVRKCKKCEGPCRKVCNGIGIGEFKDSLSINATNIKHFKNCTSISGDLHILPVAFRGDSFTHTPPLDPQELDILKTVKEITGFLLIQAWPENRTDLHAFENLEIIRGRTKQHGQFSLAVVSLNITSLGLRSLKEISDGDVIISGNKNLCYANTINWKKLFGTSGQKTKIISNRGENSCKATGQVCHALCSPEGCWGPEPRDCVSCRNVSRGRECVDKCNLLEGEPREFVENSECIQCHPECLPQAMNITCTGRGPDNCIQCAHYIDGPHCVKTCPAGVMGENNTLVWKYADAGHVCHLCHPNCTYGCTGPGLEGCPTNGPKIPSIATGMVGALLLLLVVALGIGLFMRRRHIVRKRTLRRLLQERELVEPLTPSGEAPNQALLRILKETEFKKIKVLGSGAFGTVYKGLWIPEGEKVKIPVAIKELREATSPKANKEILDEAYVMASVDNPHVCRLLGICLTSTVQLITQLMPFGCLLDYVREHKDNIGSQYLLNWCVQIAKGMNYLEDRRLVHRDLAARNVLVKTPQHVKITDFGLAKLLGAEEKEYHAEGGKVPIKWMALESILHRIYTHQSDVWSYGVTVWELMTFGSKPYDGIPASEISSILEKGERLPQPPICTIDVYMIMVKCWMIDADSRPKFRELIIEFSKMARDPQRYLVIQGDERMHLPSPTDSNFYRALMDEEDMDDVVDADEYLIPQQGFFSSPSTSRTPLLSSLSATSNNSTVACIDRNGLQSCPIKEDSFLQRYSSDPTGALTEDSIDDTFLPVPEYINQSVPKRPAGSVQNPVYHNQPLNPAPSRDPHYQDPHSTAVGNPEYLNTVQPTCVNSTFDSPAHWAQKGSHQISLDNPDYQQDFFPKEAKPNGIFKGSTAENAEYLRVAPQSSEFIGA
Series [11] concerns Ehrlich. Briefly: Antitumor activity against mouse EAC cells implanted in mouse assessed as decrease in total ascitic volume. The class given is functional. Set-up: scale not given: the % may be the effect or the level left.
For series [12], the system named is Ehrlich. Briefly: Antitumor activity against mouse EAC cells implanted in mouse assessed as reduction in tumor cell count. The arrangement: scale not given: the % may be the effect or the level left. Type of series: functional.
Series [13] deals with Escherichia coli. The series is described as follows: Bactericidal activity against Escherichia coli. The class given is functional.
Series [14] deals with Pseudomonas aeruginosa. Briefly: Bactericidal activity against Pseudomonas aeruginosa. The class given is functional.
For the next series, the system named is K562. Briefly: Anticancer activity against human K562 cells assessed as reduction in cell viability. Type of series: functional, cell-based.
The target of series [15] is Phosphatidylinositol 4,5-bisphosphate 3-kinase catalytic subunit gamma isoform (Homo sapiens, UniProt P48736). Briefly: Inhibition of PI3Kgamma (unknown origin) incubated for 90 mins by [gamma-33P]-ATP based scintillation counting method.
Chain of Phosphatidylinositol 4,5-bisphosphate 3-kinase catalytic subunit gamma isoform (P48736 whole entry, canonical isoform): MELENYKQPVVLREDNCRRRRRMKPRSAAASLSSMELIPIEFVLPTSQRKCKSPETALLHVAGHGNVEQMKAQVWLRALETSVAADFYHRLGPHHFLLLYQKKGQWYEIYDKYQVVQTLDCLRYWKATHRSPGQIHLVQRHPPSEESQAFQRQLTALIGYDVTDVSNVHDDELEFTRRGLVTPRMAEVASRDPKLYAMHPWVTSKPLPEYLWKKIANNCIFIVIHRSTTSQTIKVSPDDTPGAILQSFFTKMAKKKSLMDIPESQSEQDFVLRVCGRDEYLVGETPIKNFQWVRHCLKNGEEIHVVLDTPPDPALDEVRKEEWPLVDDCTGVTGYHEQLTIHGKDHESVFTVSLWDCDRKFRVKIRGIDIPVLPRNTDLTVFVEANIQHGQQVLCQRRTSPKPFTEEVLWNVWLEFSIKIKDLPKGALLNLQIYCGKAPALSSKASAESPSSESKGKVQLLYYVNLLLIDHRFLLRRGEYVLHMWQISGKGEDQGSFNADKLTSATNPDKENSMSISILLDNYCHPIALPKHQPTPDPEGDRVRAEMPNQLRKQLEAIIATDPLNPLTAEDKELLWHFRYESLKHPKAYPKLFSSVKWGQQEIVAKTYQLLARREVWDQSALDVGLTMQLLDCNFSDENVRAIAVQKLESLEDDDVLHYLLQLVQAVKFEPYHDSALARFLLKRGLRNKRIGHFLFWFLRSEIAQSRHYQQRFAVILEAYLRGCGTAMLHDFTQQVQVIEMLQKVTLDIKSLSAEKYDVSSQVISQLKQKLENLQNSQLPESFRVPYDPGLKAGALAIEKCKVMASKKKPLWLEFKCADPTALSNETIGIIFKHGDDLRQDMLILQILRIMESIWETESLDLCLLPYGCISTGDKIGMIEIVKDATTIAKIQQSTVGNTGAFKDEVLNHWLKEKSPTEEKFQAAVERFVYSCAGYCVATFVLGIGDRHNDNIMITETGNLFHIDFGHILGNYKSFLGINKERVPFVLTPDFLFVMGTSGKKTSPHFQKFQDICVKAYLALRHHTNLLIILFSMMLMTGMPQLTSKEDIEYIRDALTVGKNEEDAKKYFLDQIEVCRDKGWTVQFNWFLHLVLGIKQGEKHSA
Series [16] deals with T2, Phosphatidylinositol 4,5-bisphosphate 3-kinase catalytic subunit delta isoform (Homo sapiens, UniProt O00329).
T2 sequence (O00329 whole entry): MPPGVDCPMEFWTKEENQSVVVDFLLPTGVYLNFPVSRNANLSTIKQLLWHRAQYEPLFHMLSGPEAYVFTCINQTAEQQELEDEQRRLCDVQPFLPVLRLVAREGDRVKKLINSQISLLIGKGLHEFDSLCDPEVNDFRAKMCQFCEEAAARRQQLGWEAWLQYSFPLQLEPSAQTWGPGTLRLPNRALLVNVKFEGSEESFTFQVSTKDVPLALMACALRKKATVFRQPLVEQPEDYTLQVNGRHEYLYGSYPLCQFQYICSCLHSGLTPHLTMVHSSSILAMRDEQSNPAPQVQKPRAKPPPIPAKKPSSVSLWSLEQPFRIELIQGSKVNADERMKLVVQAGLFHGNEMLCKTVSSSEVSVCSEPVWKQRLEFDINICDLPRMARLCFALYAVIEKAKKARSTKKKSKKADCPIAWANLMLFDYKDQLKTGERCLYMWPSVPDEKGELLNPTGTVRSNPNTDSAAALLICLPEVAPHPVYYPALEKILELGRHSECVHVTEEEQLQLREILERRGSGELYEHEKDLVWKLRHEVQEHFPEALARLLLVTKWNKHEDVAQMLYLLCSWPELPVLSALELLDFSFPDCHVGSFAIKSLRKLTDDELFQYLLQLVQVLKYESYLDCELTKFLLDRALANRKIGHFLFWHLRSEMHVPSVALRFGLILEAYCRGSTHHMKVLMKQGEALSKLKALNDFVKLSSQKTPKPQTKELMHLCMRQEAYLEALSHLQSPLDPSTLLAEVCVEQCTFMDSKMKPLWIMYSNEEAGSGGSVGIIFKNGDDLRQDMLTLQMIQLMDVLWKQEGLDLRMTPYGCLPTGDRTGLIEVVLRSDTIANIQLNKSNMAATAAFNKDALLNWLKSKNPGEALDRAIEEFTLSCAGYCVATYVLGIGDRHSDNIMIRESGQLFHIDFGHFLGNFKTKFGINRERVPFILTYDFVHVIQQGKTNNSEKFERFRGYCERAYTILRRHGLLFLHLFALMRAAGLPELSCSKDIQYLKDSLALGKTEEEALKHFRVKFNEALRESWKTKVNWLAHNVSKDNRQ
Briefly: Inhibition of PI3Kdelta (unknown origin) incubated for 90 mins by [gamma-33P]-ATP based scintillation counting method.

The target in series [17] is Phosphatidylinositol 4,5-bisphosphate 3-kinase catalytic subunit alpha isoform (Homo sapiens, UniProt P42336). Briefly: Inhibition of PI3Kalpha (unknown origin) incubated for 90 mins by [gamma-33P]-ATP based scintillation counting method.
Chain of Phosphatidylinositol 4,5-bisphosphate 3-kinase catalytic subunit alpha isoform (P42336 whole entry, canonical isoform): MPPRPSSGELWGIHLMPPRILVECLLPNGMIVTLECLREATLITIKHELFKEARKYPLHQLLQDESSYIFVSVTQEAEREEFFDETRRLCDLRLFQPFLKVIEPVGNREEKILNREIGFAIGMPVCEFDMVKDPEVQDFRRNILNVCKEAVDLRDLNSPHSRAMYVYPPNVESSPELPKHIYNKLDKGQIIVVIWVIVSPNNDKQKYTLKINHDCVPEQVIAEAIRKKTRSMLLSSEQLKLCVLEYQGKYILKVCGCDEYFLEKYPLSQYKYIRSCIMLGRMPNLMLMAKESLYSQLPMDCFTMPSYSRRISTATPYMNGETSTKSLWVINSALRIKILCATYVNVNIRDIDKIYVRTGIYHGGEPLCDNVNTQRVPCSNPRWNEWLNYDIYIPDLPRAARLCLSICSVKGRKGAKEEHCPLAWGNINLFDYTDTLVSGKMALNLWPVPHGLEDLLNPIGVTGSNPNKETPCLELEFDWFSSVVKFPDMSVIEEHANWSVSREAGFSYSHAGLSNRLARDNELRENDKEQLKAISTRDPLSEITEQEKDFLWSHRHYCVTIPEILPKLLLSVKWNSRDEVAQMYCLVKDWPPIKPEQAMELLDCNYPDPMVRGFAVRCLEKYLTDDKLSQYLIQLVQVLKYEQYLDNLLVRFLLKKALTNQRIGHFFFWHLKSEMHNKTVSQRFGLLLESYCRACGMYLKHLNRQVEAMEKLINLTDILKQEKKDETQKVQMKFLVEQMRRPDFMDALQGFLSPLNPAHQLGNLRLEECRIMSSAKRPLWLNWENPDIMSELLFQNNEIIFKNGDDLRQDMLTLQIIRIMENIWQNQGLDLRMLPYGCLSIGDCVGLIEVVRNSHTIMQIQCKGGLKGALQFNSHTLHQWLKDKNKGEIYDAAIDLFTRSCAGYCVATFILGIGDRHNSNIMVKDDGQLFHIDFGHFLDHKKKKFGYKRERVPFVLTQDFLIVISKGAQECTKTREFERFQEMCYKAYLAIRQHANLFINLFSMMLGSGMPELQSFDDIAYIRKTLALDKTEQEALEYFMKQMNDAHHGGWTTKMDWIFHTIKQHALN

In brackets after ≈: the same amount, converted by molar mass.

As for `O=c1c2cc(Br)ccc2nc(-c2ccccc2)n1-c1n[nH]c2ccccc12`, the Ratio IC50 in series [1] was determined as 1.05.

Take `Cn1nccc1-n1c([C@@H]2CSCN2c2ncnc(N)c2C#N)nc2cccc(Cl)c2c1=O`: the IC50 (as a rule, the point on the concentration scale where inhibition reaches its midpoint) in [2] is above 10000 nM.

As for `CC1=Cc2ccc(Br)cc2C(=O)C1c1nnc(SCC(=O)NC2C(=O)CSC2c2c(Br)cccc2Br)[nH]1` (centres undefined), the LD in series [3] turned out to be 1400 mg/kg.

For `O=c1c2cc(I)ccc2nc(Cc2ccccc2Nc2c(Cl)cccc2Cl)n1Cc1nnc(-c2ccccc2Cl)o1`, the values for the MFC in the series on Candida albicans, against Aspergillus niger and in the series with Aspergillus clavatus were 100 µg/mL (≈ 140 µM), 200 µg/mL (≈ 280 µM) and 200 µg/mL (≈ 280 µM), respectively.

Consider `O=c1c2ccccc2nc(Cc2ccccc2Nc2c(Cl)cccc2Cl)n1-c1ccc(-c2nnc(-c3ccccc3Cl)o2)cc1`, for which the minimal bactericidal concentration (MBC) (in general, the smallest concentration meeting the test's criterion for killing) against Staphylococcus aureus [4] turned out to be 50 µg/mL (≈ 76.8 µM).

`O=c1c2ccccc2nc(/C=C/c2ccccc2)n1-c1nnc(-c2ccc(Cl)cc2)o1`: the MIC (as a rule, the smallest concentration in the dilution series that meets the test's criterion for growth inhibition) against Bacillus subtilis came to 75 µg/mL (≈ 176 µM); against Escherichia coli [5], 70 µg/mL (≈ 164 µM); in the series with Pseudomonas aeruginosa [6] it was 70 µg/mL (≈ 164 µM); with Staphylococcus aureus [7] it was 79 µg/mL (≈ 185 µM).

With `O=c1c2ccccc2nc(-c2ccccc2)n1-c1nccs1`, the Ki (in general, the equilibrium dissociation constant of an inhibitor or competing ligand from its target) on Thermolysin [8] turned out to be 59300 nM. In addition, on Thermolysin [9], half-maximal inhibition (IC50) required 76800 nM.

In turn, `COc1ccc(-c2nnc(-n3c(-c4ccccc4)nc4cc(Cl)ccc4c3=O)o2)cc1` had an IC50 in series [10] of 21 nM. `Cc1nc2ccccc2c(=O)n1-c1nnc(S)s1`: the Activity in the series with Ehrlich [11] is recorded as 28%; with Ehrlich [12] it was 12%. On to `O=c1c2cc(I)ccc2nc(Cc2ccccc2Nc2c(Cl)cccc2Cl)n1-c1ccc(-c2nnc(-c3ccc(Cl)cc3)o2)cc1`, for which the MBC in the series on Staphylococcus aureus [4] was 50 µg/mL (≈ 64.4 µM). As to `Cc1ccc2nc(-c3ccccc3)n(-c3n[nH]c4ccccc34)c(=O)c2c1`, the Ratio IC50 in [1] was 3.59.

As for `O=c1c2cc(I)ccc2nc(Cc2ccccc2Nc2c(Cl)cccc2Cl)n1Cc1nnc(-c2ccc(Cl)cc2)o1`, the MBC against Escherichia coli [13] turned out to be 50 µg/mL (≈ 70 µM); with Pseudomonas aeruginosa [14], 150 µg/mL (≈ 210 µM).

For `O=c1c2ccccc2nc(Cc2ccccc2Nc2c(Cl)cccc2Cl)n1Cc1nnc(-c2ccc(Cl)cc2)o1`, in the series on K562, the IC50 stood at 1000 nM. Regarding `O=c1c2cc(Cl)ccc2nc(-c2ccccc2)n1-c1n[nH]c2ccccc12`, in series [1], the Ratio IC50 stood at 2.55. In the case of `O=c1c2cc(Br)ccc2nc(Cc2ccccc2Nc2c(Cl)cccc2Cl)n1Cc1nnc(-c2ccc(Cl)cc2)o1`, in the series with K562, the 50% inhibitory concentration (IC50) was 1500 nM. In the series with Staphylococcus aureus [4], this compound showed a minimal bactericidal concentration (MBC) of 50 µg/mL (≈ 74.9 µM).

Compound `CC1(C)S[C@@H]2[C@H](NC(=O)[C@H](N)c3ccccc3)C(=O)N2[C@H]1C(=O)O` [AMPICILLIN] had a minimum bactericidal concentration (MBC) against Staphylococcus aureus [4] of 250 µg/mL (≈ 715 µM). In series [10], `O=c1c2ccc(Cl)cc2nc(-c2ccccc2)n1-c1nnc(-c2ccccc2C2CC2)o1` yielded an IC50 of 102 nM. For the compound `O=c1c2cc(Br)ccc2nc(Cc2ccccc2Nc2c(Cl)cccc2Cl)n1-c1nnc(-c2ccccc2Cl)o1`, the MBC against Staphylococcus aureus [4] stood at 50 µg/mL (≈ 76.5 µM). On the same count and under the same terms, as for `O=c1c2cc(I)ccc2nc(Cc2ccccc2Nc2c(Cl)cccc2Cl)n1-c1ccc(-c2nnc(-c3ccccc3Cl)o2)cc1`, the figure is 50 µg/mL (≈ 64.4 µM). For the compound `CN1CCN(C)/C(=N/c2ccc([N+](=O)[O-])cc2C(=O)Nc2ccccc2)C1`, the concentration for half-maximal inhibition (IC50) was above 10000 nM in series [15], 2260 nM in [2], 82 nM in [16] and above 10000 nM in [17]. For the compound `N#Cc1c(N)ncnc1N1CSC[C@H]1c1nc2cccc(Cl)c2c(=O)n1-c1cccs1`, the half-inhibitory concentration (IC50) was 1100 nM in series [15], 509 nM in [2], 140 nM in [16] and above 10000 nM in series [17]. Take `Cn1nccc1-n1c([C@@H]2CSCN2c2ncnc3[nH]cnc23)nc2cccc(Cl)c2c1=O`: the half-maximal inhibitory concentration (IC50) in [2] is 222 nM; in series [17] it was 9100 nM.

On to `CC1=Cc2ccc(Br)cc2C(=O)C1c1nnc(SCC(=O)N/N=C/c2c(Br)cccc2Br)[nH]1` (centres undefined), for which the LD in series [3] is 1400 mg/kg.

For the origin of these results see ChEMBL document CHEMBL5230137, “4-(3H)-quinazolinones N-3 substituted with a five membered heterocycle: A promising scaffold towards bioactive molecules” (Eur J Med Chem, 2021).
